Columns and labels:
[1] = system: Acvr1[R206H]COIN/+; Gt(ROSA26)SorCreERt2/+ mice; assay: Example 3: ectopic bone formation in a mouse model of FOP after tamoxifen, in vivo μCT (Activin A antibody, ACVR2a-Fc)
From the text: ACVR1 and/or ACVR2 antagonists and variants or fragments thereof can also be screened for activity in an in vivo assay. For example, ACVR1 or ACVR2 antagonists or variants thereof can be screened for their ability to treat FOP in a mouse model of FOP (e.g., ability to decrease ectopic bone formation). Transgenic knock-in mice have been developed that carry a conditional allele encoding Acvr1[R206H]. These Acvr1^[R206H]COIN/+ mice are described in U.S. Ser. No. 14/207,320 and PCT/US2014/026582, which are incorporated by reference herein in its entirety. This allele expresses the R206H variant only after activation by Cre recombinase. This allows Cre-dependent activation of Acvr1[R206H] expression at specific tissues and at specific time by using different types of Cre driver lines. […] After tamoxifen treatment, the ACVR1, ACVR2A and/or ACVR2B antagonists or a control can be administered to the Acvr1^[R206H]COIN/+; Gt(ROSA26)Sor^CreERt2/+ mice and the animals monitored for ectopic bone formation. […]
23 Acvr1^[R206H]COIN/+; Gt(ROSA26)^SorCreERt2/+ mice were treated with tamoxifen at 1 mg/mouse dose i.p. for eight days. […] Mice were monitored using in vivo micro computer tomography (μCT) at baseline, 2 and 3 weeks post initiation of tamoxifen administration. […]

[2] = system: Acvr1[R206H]COIN/+; Gt(ROSA26)SorCreERt2/+ mice; assay: Example 5: ectopic bone formation in a mouse model of FOP after tamoxifen, in vivo μCT, dose comparison of Activin A antibody; settings: for mice that developed ectopic bone: nine mice, after 4 weeks, μCT; for average total volume of ectopic bone: at 6.5 weeks, calculated from μCT images
From the text: (§1) ACVR1 and/or ACVR2 antagonists and variants or fragments thereof can also be screened for activity in an in vivo assay. For example, ACVR1 or ACVR2 antagonists or variants thereof can be screened for their ability to treat FOP in a mouse model of FOP (e.g., ability to decrease ectopic bone formation). Transgenic knock-in mice have been developed that carry a conditional allele encoding Acvr1[R206H]. These Acvr1^[R206H]COIN/+ mice are described in U.S. Ser. No. 14/207,320 and PCT/US2014/026582, which are incorporated by reference herein in its entirety. This allele expresses the R206H variant only after activation by Cre recombinase. This allows Cre-dependent activation of Acvr1[R206H] expression at specific tissues and at specific time by using different types of Cre driver lines. In this manner the resulting mice also bypass the perinatal lethality that has been observed with a non-regulated knock-in allele of Acvr1[R206H]. Activation of Acvr1[R206H] expression in young or in adult mice results in ectopic bone formation. […] Tamoxifen activates expression of Cre which then acts upon the Acvr1^[R206H]COIN/+ to convert it to Acvr1^[R206H]/+, thereby converting the genotype of the mice to mirror the genotype of the FOP patients that are ACVR1[R206H]. The Acvr1^[R206H] allele expresses Acvr1[R206H], and that is adequate to drive the development of FOP in the Acvr1^[R206H]/+; Gt(ROSA26)Sor^CreERt2/+ mice. This bypasses the embryonic lethality experienced with conventional Acvr1^[R206H] knock-in mice, Acvr1^tm1Emsh (http://www.informatics.jax.org/allele/key/828153). After tamoxifen treatment, the ACVR1, ACVR2A and/or ACVR2B antagonists or a control can be administered to the Acvr1^[R206H]COIN/+; Gt(ROSA26)Sor^CreERt2/+ mice and the animals monitored for ectopic bone formation. See Chakkalakal S A, et al. (20120 An Acvr1 R206H knock-in mouse has fibrodysplasia ossificans progressiva. J Bone Miner Res. 27(8):1746-56. This assay is described in detail in the Examples below.
35 Acvr1[R206H]COIN/+; Gt(ROSA26)SorCreERt2/+ mice were given with tamoxifen at 40 mg/kg i.p. for eight days. Eight mice were treated with 25 mg/kg isotype control antibody (REGN1945), nine mice were treated with 25 mg/kg of Activin A antibody (H4H10446P) (REGN2477), nine mice were treated with 10 mg/kg of Activin A antibody (REGN2477) and nine mice were treated with 1 mg/kg of Activin A antibody (REGN2477) weekly for 6 weeks. Mice were monitored using in vivo μCT at baseline, 2, 3, 4 and 6.5 weeks post initiation of tamoxifen administration. The volume of ectopic bone in each mouse was calculated from μCT images. […] At 6.5 weeks the average total volume of ectopic bone in the isotype treated group was 65.4 mm3 compared to 1.87 mm^3 in the 25 mg/kg, 0.3 mm^3 in the 10 mg/kg and 7.3 mm^3 in the 1 mg/kg Activin antibody treated groups.

[3] = target: T1, Activin A binding to ACVR2A or ACVR2B (Homo sapiens, UniProt P08476); settings: as described for the antibody in US2015/0037339 or U.S. Pat. No. 8,309,082; cited from earlier work
T1 sequence (P08476 311-426): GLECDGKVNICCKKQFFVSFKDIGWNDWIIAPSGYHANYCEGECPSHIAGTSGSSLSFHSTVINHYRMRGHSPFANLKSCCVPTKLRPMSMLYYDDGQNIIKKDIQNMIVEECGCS

[4] = system: Activin A mediated signaling through ACVR2A and/or ACVR2B; settings: as described for the antibody in US2015/0037339 or U.S. Pat. No. 8,309,082; cited from earlier work
[5] = system: Acvr1[R206H]COIN/+; Gt(ROSA26)SorCreERt2/+ mice; assay: Example 4: ectopic bone formation in a mouse model of FOP after tamoxifen, in vivo μCT (Activin A antibody, Acvr2a/Acvr2b antibody); settings: for protection from / inhibition of ectopic bone formation after tamoxifen treatment: mouse, in vivo
From the text: as §1, with “See Chakkalakal S A, et al. (20120 An Acvr1 R206H knock-in mouse has fibrodysplasia ossificans progressiva. J Bone Miner Res. 27(8):1746-56. This assay is described in detail in the Examples below.” left out
26 Acvr1[R206H]COIN/+; Gt(ROSA26)SorCreERt2/+ mice were given with tamoxifen at a 40 mg/kg dose i.p. for eight days. […] Mice were monitored using in vivo μCT at baseline, 2, 3 and 4 weeks post initiation of tamoxifen administration. […]

[6] = system: Acvr1[R206H]COIN/+; Gt(ROSA26)SorCreERt2/+ mice; assay: Example 2: ectopic bone formation in a mouse model of FOP after tamoxifen, in vivo μCT (ACVR1 kinase inhibitor); settings: for mice showing ectopic bone formation / size of ectopic bone lesions: 3 mg/kg twice daily for 4 weeks; for mice showing ectopic bone formation: 4 weeks post initiation of tamoxifen, μCT; for size of ectopic bone lesions: versus vehicle control group
From the text: as §1
16 Acvr1^[R206H]COIN/+; Gt(ROSA26)Sor^CreERt2/+ mice were given tamoxifen at 1 mg/mouse dose i.p. for eight days. Eight mice were treated with 3 mg/kg of the ACVR1 kinase inhibitor LDN-212854 (Mohedas et al. (2013) ACS Chem. Biol. 8:1291-1302) twice daily for 4 weeks. Eight mice were treated with vehicle control twice daily for 4 weeks. Mice were monitored using in vivo μCT at baseline, 2 and 4 weeks post initiation of tamoxifen administration.

Compound	mice showing development of ectopic bone ([1]; 25 mg/kg twice weekly, eight mice, 3 weeks post initiation of tamoxifen, μCT)	inhibition of formation of ectopic bone nodules (FIG. 3) ([1]; compared with isotype control antibody and ACVR2A-Fc)	mice that developed ectopic bone ([2]; 1 mg/kg weekly) [mice]	average total volume of ectopic bone ([2]; 1 mg/kg weekly) [mm^3]	mice that developed ectopic bone ([2]; 10 mg/kg weekly) [mice]	average total volume of ectopic bone ([2]; 10 mg/kg weekly) [mm^3]	mice that developed ectopic bone ([2]; 25 mg/kg weekly) [mice]	average total volume of ectopic bone ([2]; 25 mg/kg weekly) [mm^3]	effectiveness of varying doses against ectopic bone formation (FIG. 5) ([2]; doses 1, 10 and 25 mg/kg versus isotype control antibody)	protection from ectopic bone formation after tamoxifen treatment ([2]; mouse, in vivo)	inhibition of Activin A binding to ACVR2A and/or ACVR2B [3]	inhibition of Activin A signal transduction through ACVR2A and/or ACVR2B [4]	mice that developed ectopic bone ([5]; 10 mg/kg twice weekly, nine mice per group, 4 weeks post initiation of tamoxifen, μCT)	protection from / inhibition of ectopic bone formation after tamoxifen treatment ([5]; listed as Activin A)	protection from / inhibition of ectopic bone formation after tamoxifen treatment ([5]; listed as antibody against Activin A)	mice showing ectopic bone formation [6]	mice showing ectopic bone formation ([6]; listed as LDN212854)	size of ectopic bone lesions [6]	size of ectopic bone lesions ([6]; listed as LDN212854)	protection from ectopic bone formation after tamoxifen treatment ([6]; LDN-212854 treatment)
H4H10446P: Antibody against Activin A designated H4H10446P in US2015037339; heavy and light chain variable regions present SEQ ID NOs:1 and 5	none	inhibited formation of ectopic bone nodules most effectively	2	7.3	2	0.3	2	1.87	Dosages between 1 mg/kg and 25 mg/kg were shown to be effective with 10 mg/kg being the most effective dose tested	protected from ectopic bone formation	does not inhibit strongly, if at all	inhibits Activin A mediated signaling through ACVR2A and/or ACVR2B	one	protected from ectopic bone formation	inhibited formation of ectopic bone nodules					
c1cc(-c2cnn3cc(-c4ccc(N5CCNCC5)cc4)cnc23)c2cccnc2c1 [LDN-212854]																3 out of 8	No ectopic bone nodules could be detected in mice numbered 10, 11, 14, 15 or 16	small compared to the vehicle control group	Small ectopic bone nodules have formed in mice numbered 9, 12 and 13	protected from ectopic bone formation

From patent US11407822B2, “Treatment of fibrodysplasia ossificans progressiva” (REGENERON PHARMACEUTICALS, INC., priority 2014, dated 2022)
